The SangsterLogP compilation

assay: method code SF-AS, from DOI: 10.1002/zfch.19780180919

Row | Structure (SMILES) | logP
1 | NNC(=O)c1ccc(Cl)cc1 | 1.12
2 | NNC(=O)c1ccc([N+](=O)[O-])cc1 | 0.35
3 | NNC(=O)c1ccccc1O | 0.6
4 | NNC(=O)c1ccc(Br)cc1 | 1.28
5 | NNC(=O)c1ccc(N)cc1 | -0.75
6 | NNC(=O)c1ccc(O)cc1 | -0.33
7 | NNC(=O)c1ccccc1Cl | 0.14
8 | NNC(=O)c1ccccc1I | 0.47
9 | NNC(=O)c1ccccc1[N+](=O)[O-] | -0.54
10 | NNC(=O)c1ccccc1Br | 0.26
11 | Cc1ccccc1C(=O)NN | 0.22
12 | Cc1ccc(C(=O)NN)cc1 | 0.73
13 | NNC(=O)c1ccc(I)cc1 | 1.55
14 | NNC(=O)c1ccccc1N | -0.18

More lines, now with the values ahead:

Row | logP | Structure (SMILES)
15 | 0.25 | COc1ccccc1C(=O)NN
16 | 0.25 | COc1ccc(C(=O)NN)cc1
17 | 0.4 | COc1cccc(C(=O)NN)c1
18 | 1.26 | NNC(=O)c1cccc(Br)c1
19 | 0.23 | NNC(=O)c1cccc([N+](=O)[O-])c1
20 | -0.86 | NNC(=O)c1cccc(N)c1
21 | 1.18 | NNC(=O)c1cccc(Cl)c1
22 | 0.74 | Cc1cccc(C(=O)NN)c1
23 | 1.53 | NNC(=O)c1cccc(I)c1
24 | -0.08 | NNC(=O)c1cccc(O)c1
